Test results from publication PMC8457056, “Remodeling of the Fibrillation Pathway of α‐Synuclein by Interaction with Antimicrobial Peptide LL‐III” (Chemistry (Weinheim an Der Bergstrasse, Germany), 2021).

System: neuronal SH‐SY5Y cells stably expressing an α‐Syn‐GFP fusion protein
Assay: PFF-induced α-Syn-GFP aggregation in SH-SY5Y cells (structured-illumination microscopy)
Type: cell-based
Settings: 1 μM LL-III 1 h before PFF; for cells with α‐Syn‐GFP aggregates: 5 independent experiments, at least 150 cells per condition
Protocol: Finally, to test the anti‐aggregation activity of LL‐III in a cellular model, we used the α‐Syn pre‐formed fibril (PFF) model, which involves conversion of recombinant monomeric α‐Syn protein into fibrillar seeds that were added to neuronal SH‐SY5Y cells stably expressing an α‐Syn‐GFP fusion protein.[32, 33] In brief, untreated cells expressed soluble α‐Syn‐GFP that was rather homogenously distributed throughout the cells (Figure 3, left panel). Treatment of cells with PFF seeds caused aggregation of α‐Syn‐GFP, reflected by the formation of GFP‐positive foci (Figure 3, middle and right panel). These α‐Syn‐GFP aggregates could be visualized already 24 h after PFF treatment by fluorescence super‐resolution structured illumination microscopy.
Figure 3 LL‐III decreases PFF‐induced α‐Syn aggregation in neuronal cells. SH‐SY5Y cells stably expressing α‐Syn‐GFP were pre‐treated without or with LL‐III 1 h before adding PFF seeds to induce α‐Syn aggregation. A. α‐Syn was visualized by structured‐illumination microscopy 24 h and 48 h after PFF treatment. Green: α‐Syn (GFP), blue: nuclei (DAPI). B. Quantification of cells with α‐Syn aggregates was based on 5 independent experiments. In total, at least 150 cells were counted per condition. Data were processed by a Kolmogorov‐Smirnov test for Gaussian distribution followed by an unpaired two‐tailed Student's t‐test. *** p≤0.001.
LL‐III was pre‐incubated with α‐Syn‐GFP‐expressing SH‐SY5Y cells at a concentration of 1 μM one hour before PFF treatment to allow cellular uptake of LL‐III. The number of cells with α‐Syn‐GFP aggregates was quantified 24 h and 48 h after PFF seeding. […]
µM) and following the anisotropy changes of the Trp residue. […] The anisotropy was evaluated at 354 nm which corresponds to the maximum of emission of the free peptide. […]
Far-UV circular dichroism (CD) spectra were recorded by using a Jasco J- 715 spectropolarimeter from Jasco Cor-poration (Tokyo, Japan). […] A blank spectrum of 20 mM sodium acetate buffer, pH 5.0, was recorded and subtracted from all the samples spectra. […]

NH2-VNWKKIL GKIIKVVK -CONH2 [LL‐III]
cells with α‐Syn‐GFP aggregates (24 h after PFF seeding, without LL-III 48 %): 30% | change in number of cells with aggregates (24 h and 48 h): significantly decreased | cells with α‐Syn‐GFP aggregates (48 h after PFF seeding, without LL-III 54 %): 36%
